# “Also recorded” adds a separate entry of the source.
# Tests used:
# MCF-7/ADR cells [1] = test: Acridine orange labeling of acidic compartments (confocal microscopy); type: cell-based, human; details: for red-orange acridine orange fluorescence of cytoplasmic organelles after addition of agent: MCF-7/ADR, 30 minutes, Monensin 5 μM, Bafilomycin A1 500 nM, concanomycin 100 nM, Tamoxifen 5 or 10 μM, verapamil 10 μM, cyclosporin A 10 μM
# Protocol: Confocal fluorescence imaging of intracellular pH and acidic compartments: Acridine orange (2 μg/ml media; 4 mg/ml stock in water) was added directly to the chambers and the cells were incubated with the dye at 37° C. for 30 minutes. Cells in the presence of acridine orange were then examined at room temperature with an Insight Bilateral Laser Scanning Confocal Microscope (Meridian Instruments, Okemos, Mich.). […] Optical sections of the fluorescent sample were recorded at 0.5 micron intervals. […] The acetoxymethylester derivative of SNAFL-calcein (15 μg/ml) (Molecular Probes, Eugene, Oreg.) (a radiometric fluorescent probe for pH) was added to both MCF-7 and MCF-7adr cells. The ester linked fluorescent probe enters the cell passively where the esters are hydrolyzed by esterases located in the cytoplasm and intracellular vesicles. The SNAFL-calcein is then ionically trapped within the cytoplasm and vesicular compartments. […] These images were then compared to standard curves that were obtained in the following manner. […] Cells treated with monensin were exposed to the drug (10 μg/ml of media) for 30 minutes at 37° C. prior to labeling with SNAFL-calcein as described above. All cells were examined at room temperature.
# The green and red emissions were collected using two photomultiplier tubes. […] Green emission was next passed through a 530 nm/30 nm bandpass filter and collected by the on-axis photomultiplier tube. Red emission was passed through a 610 nm longpass filter and collected by the 90° side photomultiplier tube.
# Optical sections of the fluorescent samples were recorded at 0.5 micron intervals with a 60×oil immersion objective.
# MCF-7/ADR cells [2] = test: Lysosomal acidification by DAMP immuno-electron microscopy; type: cell-based, human; design: dose or concentration left out as unconfirmed; details: MCF-7/ADR cells treated prior to DAMP
# Protocol: pH in the lysosomes: The pH in the lysosomes was assayed both with light and electron microscopy. Light microscopy: […] Cell Biol., 105:2723-2733 (1987)]. The pH was calibrated as described above. Electron microscopy: The cells were incubated with the weak base DAMP, fixed, probed with an mouse antibody to DNP (cross-reacts with DAMP) and visualized with gold-conjugated anti-mouse antibodies. […] Then DAMP was added to a final concentration of at 70 μM and the cells were incubated for another 45 minutes. The medium was replaced with phosphate buffered saline (PBS), pH 7.4, with 4% paraformaldehyde and 0.75% gluteraldehyde. […] They were then stained and visualized under the electron microscope.
# MCF-7/ADR cells [3] = test: Organelle-specific pH measurements with targeted SNARF and FITC probes in living cells; type: cell-based, human
# Protocol: Organelle-specific pH measurements: The pH was measured in selective cellular compartments by targeting ratiometric pH probes to specific organelles. […] Using a Nikon epifluorescence microscope with a intensified CCD camera, the pH probe FITC was excited alternately at 450 nm and 490 nm and emission recorded with a 520/10 bandpass filter. […] In short, to calibrate the pH for the endosomal system, the chamber was perfused with 150 mM sodium buffers at pH of 5, 6 or 7 containing of monensin (20 μM) and nigericin (10 μM) for 5 minutes before recording the fluorescence. For the pH calibrations of cytosol and nucleoplasm, the cells were incubated in 140 mM potassium buffers at pH 6.0, 6.5, 7.0 and 7.5 containing nigericin (20 μM).
# After endocytosis, the transferrin is transported through the endosomes and then recycled back to the surface without passage through the lysosomes.
# pH in the lysosomes: The pH in the lysosomes was assayed both with light and electron microscopy. […] The pH was calibrated as described above. […] The cells were incubated one hour at room temperature, washed with several changes of PBS pH 7.4 containing 50 mM NH4Cl. […] The cells were embedded in LR White in gelatin capsules and baked at 60° C. for 24 hours in a vacuum oven, sectioned and incubated overnight at 4° C. with anti-DNP antibodies in 4% FBS, washed and incubated in gold (10 nm) labeled secondary antibodies for 2 hours. They were then stained and visualized under the electron microscope.
# Cells were plated on polystyrene plates at 50% confluency. Twenty-four to thirty-six hours later, the medium was aspirated and the cells were covered with 50 μl of DME with SNARF-dextran (10 mg/ml). The cells were quickly scraped off the polystyrene and placed in pre-chilled tubes containing 1 ml DME without serum. The cells were harvested (100 g for 5 minutes), washed twice with pre-chilled DME, and plated on Lab-Tek chambers in DME with serum. The cells were allowed to recover for 24 hours prior to examination on a confocal microscope. The pH was calibrated from SNARF fluorescence as described above.
# pH in the nucleus: The nucleoplasmic pH was probed by loading the cytosol with SNARF conjugated to a 10 kD dextran. This dextran is too large to cross cellular membranes, but can enter the nucleoplasm by diffusion across the nuclear pores. Confocal fluorescence microscopy was used to prepare optical sections through the cell allowing the fluorescence intensity of the nucleoplasm and cytoplasm to be quantified. The 10 kD SNARF-dextran was loaded into the cytosol and imaged using the same techniques for the 70 kD SNARF-dextrans (see above).
# MCF-7/ADR cells [4] = test: Cell viability assay of Adriamycin sensitivity (Hoechst 33258 DNA content); details: for effect on sensitivity of drug-resistant cells to Adriamycin: MCF-7/ADR (MCF-7adr) cells, agent co-incubated with adriamycin for 6 hours
# Protocol: After 6 hours, the media was removed, the cells rinsed, and then fed with fresh media not containing drugs. […] Media was aspirated and the wells rinsed with Hanks Balanced Salt Solution (HBSS, phenol red free). The cells were sonicated in hypotonic media (0.1×HBSS) for 30 seconds. […] Calf thymus DNA was used for calibration.
# Cell viability assays: The media was removed 60 hr. after plating the cells and replaced with fresh media supplemented with various concentrations of adriamycin (Calbiochem, CA) and monensin (solubilized in DMF 0.1%) (Sigma, St. Louis). After 6 hr the media was removed, the cells rinsed, and then fed with fresh media not containing drugs. […] Media was aspirated and the wells rinsed with Hanks Balanced Salt Solution (HBSS, phenol red free). The cells were sonicated in hypotonic media (0.1×HBSS) for 30 seconds. […] Calf thymus DNA was used for calibration.
# Cell Viability Assays: Cell viability was assayed by plating cells at ˜1000 cells/well in 24 well plates (Falcon) in DME. […] The cells were fed daily for three days and then cell viability was quantified with two independent techniques: an assay of total DNA and an assay of volume of viable cells. […] Calf thymus DNA was used for calibration.
# After three days cell viability was assayed.
# [5] = system: isolated microsomes of MCF-7/ADR cells; test: In vitro acidification of total microsomal preparation (acridine orange quenching)
# Protocol: Acidification of Cellular Microsomes: The acidification of cellular microsomes was assayed spectrophotometrically. Two different approaches were used for assaying acidification: Acidification of the total microsomal preparation using quenching of acridine orange and acidification of the recycling endosomes by monitoring the fluorescence from a microsomal preparation from cells that had previously endocytosed FITC-transferrin.
# The homogenate was centrifuged twice for 10 minutes at 3000 g to remove unbroken cells and nuclei. The supernatant was layered over 20 ml of 0.5 M sucrose (20 mM HERES (pH 7.4), 1 mM DTT, 1 mM EDTA, 1×protease inhibitor mix) and 1 ml of 2 M sucrose and centrifuged for one hour at 100,000 g (Beckman Ti60 Rotor). Microsomes are collected at the 0.5 M and 2 M interface.
# Acidic vesicles accumulate acridine orange to high concentrations resulting in the self quenching of the dye. This accumulation causes depletion of the acridine orange from the extra-vesicular space, and a decrease of the overall fluorescence of the sample. […] The sample was allowed to equilibrate by stirring for 30 minutes at 25° C. After 5 minutes of recording to establish baseline, 1 mM Tris-ATP was added to begin acidification (100 mM stock, titrated to pH 7.4 with 1 M Tris-base before use).
smiles,measurement,setting,value
CC[C@@]1([C@@H]2O[C@@H]([C@H]3O[C@@](O)(CO)[C@H](C)C[C@@H]3C)C[C@@H]2C)CC[C@H]([C@]2(C)CC[C@]3(C[C@H](O)[C@@H](C)[C@@H]([C@@H](C)[C@@H](OC)[C@H](C)C(=O)O)O3)O2)O1 [Monensin],red-orange acridine orange fluorescence of cytoplasmic organelles after addition of agent,MCF-7/ADR cells [1],loss of the red-orange fluorescence
same,red-orange acridine orange fluorescence of cytoplasmic organelles after addition of agent,MCF-7/ADR cells [1]; listed as monensin,did not exhibit the red spectral shift within the vesicles
same,average density of gold particles (anti-DNP labeling of DAMP) per lysosomal area,MCF-7/ADR cells [2],zero
same,"shift of cytosolic pH, more alkaline","MCF-7/ADR cells [3]; MCF-7/ADR cells, SNARF 70 kD dextran, Tamoxifen at 10 μM",0.2 units
same,effect on sensitivity of drug-resistant cells to Adriamycin,MCF-7/ADR cells [4],increased the drug sensitivity of the MCF-7adr cells to the level observed for drug-sensitive cells
same,acidification of pre-treated microsomes,"[5]; Tamoxifen 8 μM, Bafilomycin A1 10 nM, monensin concentration not given",inhibited acidification
same,rate of dissipation of the pre-existing pH gradient,"[5]; added 10 minutes after ATP, Bafilomycin A1 100 nM, compared with tamoxifen",significantly faster than tamoxifen
CC/C(=C(\c1ccccc1)c1ccc(OCCN(C)C)cc1)c1ccccc1 [Tamoxifen],red-orange acridine orange fluorescence of cytoplasmic organelles after addition of agent,MCF-7/ADR cells [1],loss of the red-orange cytoplasmic fluorescence
same,red-orange acridine orange fluorescence of cytoplasmic organelles after addition of agent,MCF-7/ADR cells [1]; listed as tamoxifen,steady decrease of the red acridine orange fluorescence
same,acridine orange staining of acidic vesicles after treatment,"MCF-7/ADR cells [1]; MCF-7adr (Examples 2, 3), nigericin 7.5 μM, tamoxifen 50 μM",loss of acridine orange staining within the pericentriolar region
same,average density of gold particles (anti-DNP labeling of DAMP) per lysosomal area,MCF-7/ADR cells [2],2.0 /μm^2
same,"change with Tamoxifen, pH Lysosomes SNARF-conjugated dextran",MCF-7/ADR cells [3]; MCF-7/ADR,>+1.1
same,"change with Tamoxifen, pH Recycling endosomes FITC-conjugated transferrin",MCF-7/ADR cells [3]; MCF-7/ADR,+0.5
same,"change with Tamoxifen, pH lysosomes FITC conjugated dextran",MCF-7/ADR cells [3]; MCF-7/ADR,>+1.2
same,pH Cytosol (SNARF 70 kD dextran),MCF-7/ADR cells [3]; MCF-7/ADR + Tamoxifen (10 μM),7.20 ± 0.1
same,pH Lysosomes SNARF-conjugated dextran,MCF-7/ADR cells [3]; MCF-7/ADR + Tamoxifen (10 μM),7.1
same,pH Nucleus (SNARF 10 kD dextran),MCF-7/ADR cells [3]; MCF-7/ADR + Tamoxifen (10 μM),7.20 ± 0.1
same,pH Recycling endosomes FITC-conjugated transferrin,MCF-7/ADR cells [3]; MCF-7/ADR + Tamoxifen (10 μM),6.7 ± 0.2
same,pH lysosomes FITC conjugated dextran,"MCF-7/ADR cells [3]; MCF-7/ADR + Tamoxifen (10 μM), FITC cannot discriminate pH above 6.6",> 6.6
same,pH Recycling endosomes FITC-conjugated transferrin,"MCF-7/ADR cells [3]; MCF-7/ADR + Tamoxifen (10 μM), listed as tamoxifen",6.7
same,cell death,"MCF-7/ADR cells [4]; 1 μM Adriamycin in the presence of 5 μM Tamoxifen, 6 hours exposure, assayed after three days",95%
same,cell viability in the absence of Adriamycin,MCF-7/ADR cells [4]; 5 μM Tamoxifen alone,no decrease in viability; also recorded: little effect on cell viability
same,effect on sensitivity of drug-resistant cells to Adriamycin,MCF-7/ADR cells [4],substantially increased the sensitivity of the cells to Adriamycin
same,effect on sensitivity of drug-resistant cells to Adriamycin,MCF-7/ADR cells [4]; listed as tamoxifen,significantly enhanced sensitivity to adriamycin
same,time to almost complete dissipation of the pre-existing pH gradient,[5]; 8 μM Tamoxifen added 10 minutes after Tris-ATP,≤ 5 minutes

# Source: patent US20020042079A1, “METHODS AND AGENTS FOR MEASURING AND CONTROLLING MULTIDRUG RESISTANCE” (priority 1994, published 2002)
